Measurements as given in US9271969B2, “Compounds as inhibitors of diacylglycerol O-acyltransferase type 1 enzyme” (KAINOS MEDICINE, INC., priority 2012, dated 2016).

Tests used:
mouse DGAT1 = mouse DGAT1 (Mus musculus (Mouse), UniProt Q9Z2A7); assay: Radiometric DGAT1 assay, mouse liver microsomes; type: biochemical; conditions: mouse liver microsomes having mouse DGAT1 activity
Source text: (§1) A second source of DGAT1 activity was human or mouse liver microsomes.

human DGAT1 [1] = biological target: T1, human DGAT1 (Homo sapiens (Human), UniProt O75907); assay: biochemical
Protocol: For this assay, a source of DGAT1 was needed. In that regard, a commercially available plasmid for expression of DGAT1 (e.g., pCMV6-recombinant human DGAT1 plasmid) was transfected for 24 hours in Hep3B cells. After transfection of the plasmid, human DGAT-1 expression was analyzed by Western blot or RT-PCR using whole cell extracts. […] Human and mouse DGAT activity were determined as follows.
The plates were sealed, incubated overnight and counted the next morning on a liquid scintillation counter and luminometer.
DGAT1 catalyzes the transfer of the radiolabelled decanoyl group onto the sn-3 position of didecanoyl glycerol. The resultant radiolabeled tridecanoyl glycerol (tricaprin) preferentially binds to the hydrophobic coating on the phospholipid-coated radiometric assay plate. The proximity of the radiolabeled product to the solid scintillant incorporated into the bottom of the radiometric assay plate induced for release from the scintillant, which was measured in the liquid scintillation counter and luminometer.
IC50 values of the compounds were determined from concentration-dependent inhibition curves by using commercially available software.

human DGAT1 [2] = biological target: T1, human DGAT1; assay: Radiometric DGAT1 assay, human liver microsomes; type: biochemical; conditions: Source of human DGAT activity B = human liver microsomes
Source text: as §1

Sequence of mouse DGAT1 (Q9Z2A7 whole entry): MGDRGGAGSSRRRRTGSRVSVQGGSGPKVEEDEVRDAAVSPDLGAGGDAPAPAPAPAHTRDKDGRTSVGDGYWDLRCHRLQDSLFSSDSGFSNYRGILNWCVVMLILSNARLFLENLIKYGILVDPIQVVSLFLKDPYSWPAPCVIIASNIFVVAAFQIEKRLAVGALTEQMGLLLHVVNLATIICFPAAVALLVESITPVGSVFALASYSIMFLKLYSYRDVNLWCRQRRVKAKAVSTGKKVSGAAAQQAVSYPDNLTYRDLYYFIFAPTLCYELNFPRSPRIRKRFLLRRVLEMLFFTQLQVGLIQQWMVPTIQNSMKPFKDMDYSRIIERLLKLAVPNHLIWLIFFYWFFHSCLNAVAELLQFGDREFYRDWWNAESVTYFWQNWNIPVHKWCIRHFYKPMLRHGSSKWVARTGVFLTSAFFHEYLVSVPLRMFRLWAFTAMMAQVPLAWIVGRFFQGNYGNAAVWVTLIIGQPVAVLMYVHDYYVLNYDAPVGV
T1 sequence (O75907 whole entry): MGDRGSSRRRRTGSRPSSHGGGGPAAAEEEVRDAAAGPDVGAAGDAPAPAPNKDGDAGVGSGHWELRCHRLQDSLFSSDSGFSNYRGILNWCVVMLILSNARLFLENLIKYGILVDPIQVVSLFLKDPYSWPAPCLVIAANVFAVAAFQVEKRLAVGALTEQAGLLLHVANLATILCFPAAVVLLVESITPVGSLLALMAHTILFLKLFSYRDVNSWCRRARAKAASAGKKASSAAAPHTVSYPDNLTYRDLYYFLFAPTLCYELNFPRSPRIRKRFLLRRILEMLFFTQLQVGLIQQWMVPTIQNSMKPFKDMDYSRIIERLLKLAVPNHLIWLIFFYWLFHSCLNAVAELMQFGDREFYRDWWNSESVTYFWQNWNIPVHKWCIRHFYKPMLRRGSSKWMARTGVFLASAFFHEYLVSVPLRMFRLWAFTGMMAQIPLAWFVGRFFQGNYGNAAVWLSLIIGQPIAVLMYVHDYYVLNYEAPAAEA

IC50 (mouse DGAT1) [nM] | IC50 (human DGAT1 [1]) [nM] | IC50 (human DGAT1 [2]) [nM] | Compound
< 50 | < 10 | – | O=C(O)C[C@H]1CC[C@H](c2ccc(-c3ccc4nc(C(=O)NCc5ccc(OC(F)(F)F)cc5)cn4c3)cc2)CC1 [Compound 1, 2-((1r,4r)-4-(4-(2-((4-(Trifluoromethoxy)benzyl)carbamoyl)imidazo[1,2-a]pyridin-6-yl)phenyl)cyclohexyl)acetic acid]
< 75 | < 10 | – | O=C(O)C[C@H]1CC[C@H](c2ccc(-c3ccc4nc(C(=O)Nc5ccc(OC(F)(F)F)cc5)cn4c3)cc2)CC1 [Compound 3, 2-((1r,4r)-4-(4-(2-((4-(Trifluoromethoxy)phenyl)carbamoyl)imidazo[1,2-a]pyridin-6-yl)-phenyl)cyclohexyl)acetic acid]
< 1 | < 10 | – | CC(C)c1ccc(CNC(=O)c2cn3cc(-c4ccc([C@H]5CC[C@H](CC(=O)O)CC5)cc4)ccc3n2)cc1 [Compound 19]
< 750 | < 250 | – | O=C(O)C[C@H]1CC[C@H](c2ccc(-c3ccc4nc(C(=O)Nc5ccc(F)cc5C(F)(F)F)cn4c3)cc2)CC1 [Compound 33, 2-((1r,4r)-4-(4-(2-((4-Fluoro-2-(trifluoromethyl)phenyl)carbamoyl)imidazo[1,2-a]pyridin-6-yl)phenyl)cyclohexyl)acetic acid]
< 450 | < 150 | – | O=C(O)C[C@H]1CC[C@H](c2ccc(-c3ccc4nc(C(=O)Nc5ccccc5C(F)(F)F)cn4c3)cc2)CC1 [Compound 34, 2-((1r,4r)-4-(4-(2-((2-(Trifluoromethyl)phenyl)carbamoyl)imidazo[1,2-a]pyridin-6-yl)phenyl)cyclohexyl)acetic acid]
< 50 | < 10 | – | Cc1ccccc1CNC(=O)c1cn2cc(-c3ccc([C@H]4CC[C@H](CC(=O)O)CC4)cc3)ccc2n1 [Compound 37, 2-((1r,4r)-4-(4-(2-((2-Methylbenzyl)carbamoyl)imidazo[1,2-a]pyridin-6-yl)phenyl)cyclohexyl)acetic acid]
< 150 | < 10 | – | COc1ccc(CNC(=O)c2cn3cc(-c4ccc([C@H]5CC[C@H](CC(=O)O)CC5)cc4)sc3n2)cc1 [Compound 57, 2-((1r,4r)-4-(4-(6-((4-Methoxybenzyl)carbamoyl)imidazo[2,1-b]thiazol-2-yl)phenyl)cyclo-hexyl)acetic acid]
< 50 | – | < 25 | Cc1cccc(Cl)c1CNC(=O)c1cn2cc(-c3ccc(C4CCC(C(C)(C)C(=O)O)CC4)cc3)ccc2n1 (stereo not shown) [Compound 67, 2-((1s,4s)-4-(4-(2-((2-Chloro-6-methylbenzyl)carbamoyl)imidazo[1,2-a]pyridin-6-yl)phenyl)cyclohexyl)-2-methylpropanoic acid]

Further lines, the molecule ahead of its results:

Compound | IC50 (mouse DGAT1) [nM] | IC50 (human DGAT1 [1]) [nM] | IC50 (human DGAT1 [2]) [nM]
O=C(O)C[C@H]1CC[C@H](c2ccc(-c3ccc4nc(C(=O)Nc5ccc(C(F)(F)F)cc5)cn4c3)cc2)CC1 [Compound 2, 2-((1r,4r)-4-(4-(2-((4-(Trifluoromethyl)phenyl)carbamoyl)imidazo[1,2-a]pyridin-6-yl)phenyl)-cyclohexyl)acetic acid] | < 200 | < 10 | –
O=C(O)C[C@H]1CC[C@H](c2ccc(-c3ccc4nc(C(=O)NCc5cc(OC(F)(F)F)ccc5F)cn4c3)cc2)CC1 [Compound 9, 2-((1r,4r)-4-(4-(2-((2-Fluoro-5-(trifluoromethoxy)benzyl)carbamoyl)imidazo[1,2-a]pyridin-6-yl)phenyl)cyclohexyl)acetic acid] | < 50 | < 50 | –
O=C(O)C[C@H]1CC[C@H](c2ccc(-c3ccc4nc(C(=O)NCc5ccc(F)c(OC(F)(F)F)c5)cn4c3)cc2)CC1 [Compound 10, 2-((1r,4r)-4-(4-(2-((4-Fluoro-3-(trifluoromethoxy)benzyl)carbamoyl)imidazo[1,2-a]pyridin-6-yl)phenyl)cyclohexyl)acetic acid] | < 75 | < 75 | –
O=C(O)C[C@H]1CC[C@H](c2ccc(-c3ccc4nc(C(=O)NCc5ccc(C(F)(F)F)c(F)c5)cn4c3)cc2)CC1 [Compound 11, 2-((1r,4r)-4-(4-(2-((3-Fluoro-4-(trifluoromethyl)benzyl)carbamoyl)imidazo[1,2-a]pyridin-6-yl)phenyl)cyclohexyl)acetic acid] | < 75 | < 50 | –
COc1ccc(CNC(=O)c2cn3cc(-c4ccc([C@H]5CC[C@H](CC(=O)O)CC5)cc4)ccc3n2)cc1 [Compound 12, 2-((1r,4r)-4-(4-(2-((4-Methoxybenzyl)carbamoyl)imidazo[1,2-a]pyridin-6-yl)-phenyl)cyclohexyl)acetic acid] | < 150 | < 25 | –
COc1ccc(OC(F)(F)F)cc1CNC(=O)c1cn2cc(-c3ccc([C@H]4CC[C@H](CC(=O)O)CC4)cc3)ccc2n1 [Compound 18, 2-((1r,4r)-4-(4-(2-((2-Methoxy-5-(trifluoromethoxy)benzyl)carbamoyl)imidazo[1,2-a]-pyridin-6-yl)phenyl)cyclohexyl)acetic acid] | < 1 | < 10 | –
Cc1ccccc1NC(=O)c1cn2cc(-c3ccc([C@H]4CC[C@H](CC(=O)O)CC4)cc3)ccc2n1 [Compound 32, 2-((1r,4r)-4-(4-(2-(o-Tolylcarbamoyl)imidazo[1,2-a]pyridin-6-yl)phenyl)cyclohexyl)acetic acid] | < 1 | < 1 | –
O=C(O)C[C@H]1CC[C@H](c2ccc(-c3ccc4nc(C(=O)Nc5ccccc5F)cn4c3)cc2)CC1 [Compound 35, 2-((1r,4r)-4-(4-(2-((2-Fluorophenyl)carbamoyl)imidazo[1,2-a]pyridin-6-yl)phenyl)cyclohexyl)acetic acid] | < 550 | < 200 | –
COc1ccccc1NC(=O)c1cn2cc(-c3ccc([C@H]4CC[C@H](CC(=O)O)CC4)cc3)ccc2n1 [Compound 36, 2-((1r,4r)-4-(4-(2-((2-Methoxyphenyl)carbamoyl)imidazo[1,2-a]pyridin-6-yl)phenyl)cyclohexyl)acetic acid] | < 75 | < 100 | –
Cc1cccc(C)c1NC(=O)c1cn2cc(-c3ccc([C@H]4CC[C@H](CC(=O)O)CC4)cc3)ccc2n1 [Compound 38, 2-((1r,4r)-4-(4-(2-((2,6-Dimethylphenyl)carbamoyl)imidazo[1,2-a]pyridin-6-yl)phenyl)cyclohexyl)acetic acid] | < 1 | < 200 | –
O=C(O)C[C@H]1CC[C@H](c2ccc(-c3ccc4nc(C(=O)Nc5cc(F)ccc5F)cn4c3)cc2)CC1 [Compound 39, 2-((1r,4r)-4-(4-(2-((2,5-Difluorophenyl)carbamoyl)imidazo[1,2-a]pyridin-6-yl)phenyl)cyclohexyl)acetic acid] | < 1 | < 10 | –
O=C(O)C[C@H]1CC[C@H](c2ccc(-c3ccc4nc(C(=O)Nc5cc(F)c(F)c(F)c5)cn4c3)cc2)CC1 [Compound 40, 2-((1r,4r)-4-(4-(2-((3,4,5-Trifluorophenyl)carbamoyl)imidazo[1,2-a]pyridin-6-yl)phenyl)cyclohexyl)acetic acid] | < 50 | < 1 | –
O=C(O)C[C@H]1CC[C@H](c2ccc(-c3cn4cc(C(=O)NCc5ccc6c(c5)OCO6)nc4s3)cc2)CC1 [Compound 58, 2-((1r,4r)-4-(4-(6-((Benzo[d][1,3]dioxol-5-ylmethyl)carbamoyl)imidazo[2,1-b]thiazol-2-yl)-phenyl)cyclohexyl)acetic acid] | < 325 | < 100 | –
O=C(O)C[C@H]1CC[C@H](c2ccc(-c3cn4cc(C(=O)NCc5ccc(F)c(OC(F)(F)F)c5)nc4s3)cc2)CC1 [Compound 59, 2-((1r,4r)-4-(4-(6-((4-Fluoro-3-(trifluoromethoxy)benzyl)carbamoyl)imidazo[2,1-b]thiazol-2-yl)phenyl)cyclohexyl)acetic acid] | < 25 | < 25 | –
CC(C)(C(=O)O)[C@H]1CC[C@H](c2ccc(-c3ccc4nc(C(=O)NCc5ccc(OC(F)(F)F)cc5)cn4c3)cc2)CC1 [Compound 66, 2-Methyl-2-((1r,4r)-4-(4-(2-((4-(trifluoromethoxy)benzyl)carbamoyl)imidazo[1,2-a]pyridin-6-yl)phenyl)cyclohexyl)propanoic acid] | < 50 | – | < 10
